# Data from patent US7150974B1, “Parathyroid hormone receptor binding method” (The General Hospital Corporation, priority 1991, dated 2006).
# Molecular target: T1, human kidney PTH/PTHrP receptor (Homo sapiens, UniProt Q03431, L389Q)
# T1 construct: The full-length human kidney PTH/PTHrP receptor cDNA, HKrk, was constructed using the BamHI/PvuII fragment of PCR clone #2 and HK-2; expressed in transfected cells; host or cells: COS-7 cells, transient (DEAE/Dextran), pcDNAI
# T1 sequence (Q03431 27-593 L389Q): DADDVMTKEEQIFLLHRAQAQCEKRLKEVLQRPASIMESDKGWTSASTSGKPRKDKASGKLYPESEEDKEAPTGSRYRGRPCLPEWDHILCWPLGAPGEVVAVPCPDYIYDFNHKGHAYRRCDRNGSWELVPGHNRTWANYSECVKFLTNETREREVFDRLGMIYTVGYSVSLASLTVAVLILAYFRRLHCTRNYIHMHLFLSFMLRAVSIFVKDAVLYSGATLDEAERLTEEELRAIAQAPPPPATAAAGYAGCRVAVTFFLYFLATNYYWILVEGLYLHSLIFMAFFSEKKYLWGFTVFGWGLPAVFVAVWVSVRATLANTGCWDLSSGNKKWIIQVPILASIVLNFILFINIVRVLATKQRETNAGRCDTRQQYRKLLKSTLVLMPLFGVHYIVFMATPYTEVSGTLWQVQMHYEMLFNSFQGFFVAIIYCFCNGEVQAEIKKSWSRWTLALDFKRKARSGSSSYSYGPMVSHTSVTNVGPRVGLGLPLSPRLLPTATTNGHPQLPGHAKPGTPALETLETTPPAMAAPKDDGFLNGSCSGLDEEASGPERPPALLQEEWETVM
# Assay: cAMP accumulation, COS-7 cells expressing human kidney receptor
# Type: cell-based
# Details: COS-7 cells expressing human receptor, FIG. 18
# Procedure: Intracellular cAMP accumulation was measured as described previously (Abou-Samra et al., J. Biol. Chem. 262:1129, 1986). Cells in 24-well plates were rinsed with culture medium containing 0.1% BSA and 2 mM IBMX. […] The supernatant was removed and the cells immediately frozen by placing the whole plate in dry ice powder. Intracellular cAMP was extracted by thawing the cells in 1 ml of 50 mM HCl and analyzed by a specific radioimmunoassay using an anti-cAMP antibody (e.g., Sigma, St. Louis, Mo.). A cAMP analog (2′-O-monosuccinyl-adenosine 3′:5′-cyclic monophosphate tyrosyl methyl ester, obtained from Sigma) which was used a tracer for cAMP was iodinated by the chloramine T method. Free iodine was removed by adsorbing the iodinated cAMP analog onto a C18 Sep-pak cartridge (Waters, Milford, Mass.). After washing with dH2O, the iodinated cAMP analog was eluted from the Sep-pak Cartridge with 40% acetonitrille (ACN) and 0.1% trifluoroacetic acid (TFA). The iodinated cAMP analog was lyophilized, reconstituted in 1 ml 0.1% TFA, and injected into a C18 reverse phase HPLC column (Waters). The column was equilibrated with 10% ACN in 0.1% TFA, and eluted with gradient of 10-30% ACN in 0.1% TFA. This allows separation of the mono-iodinated cAMP analog from the non-iodinated cAMP analog. […] The standard used for the assay, adenosine 3′:5′-cyclic monophosphate, was purchased from Sigma. […]
substance,measurement,value
"[Nle^8,18, Tyr^34]bPTH(1-34)amide","cAMP accumulation, PTH(1-34) compared with PTHrP(1-36)",to the same extent
